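In this assay, cells in 96-well plates receive the compound at five concentrations for 48 hours. Endpoints are linearly interpolated between the surrounding concentrations. The concentration for 50% growth inhibition is given as GI50.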 Calls of active or inactive are those of the source. Cut-off read from the data, not from the text of the source: active = GI50 up to about 1.1 µM and inactive = higher.
Key:
Experiment in all cases: NCI-60 cell line screen, 48 h
786-0 = tested on: 786-0
A498 = tested on: A498
A549 = tested on: A549
ACHN = tested on: ACHN
BT-549 = tested on: BT-549
CAKI-1 = tested on: CAKI-1
CCRF-CEM = tested on: CCRF-CEM
COLO 205 = tested on: COLO 205
DU-145 = tested on: DU-145
EKVX = tested on: EKVX
HCC 2998 = tested on: HCC 2998
HCT-116 = tested on: HCT-116
HCT-15 = tested on: HCT-15
HL-60 = tested on: HL-60
HOP-62 = tested on: HOP-62
HOP-92 = tested on: HOP-92
HT-29 = tested on: HT-29
Hs-578T = tested on: Hs-578T
IGROV-1 = tested on: IGROV-1
K562 = tested on: K562
KM12 = tested on: KM12
LOX IMVI = tested on: LOX IMVI
M14 = tested on: M14
MCF7 = tested on: MCF7
MDA-MB-231 = tested on: MDA-MB-231
MDA-MB-435 = tested on: MDA-MB-435
MDA-N = tested on: MDA-N
MOLT-4 = tested on: MOLT-4
Malme-3M = tested on: Malme-3M
NCI-H226 = tested on: NCI-H226
NCI-H23 = tested on: NCI-H23
NCI-H460 = tested on: NCI-H460
NCI-H522 = tested on: NCI-H522
NCI/ADR-RES = tested on: NCI/ADR-RES
OVCAR-3 = tested on: OVCAR-3
OVCAR-4 = tested on: OVCAR-4
OVCAR-5 = tested on: OVCAR-5
OVCAR-8 = tested on: OVCAR-8
PC-3 = tested on: PC-3
RPMI-8226 = tested on: RPMI-8226
RXF 393 = tested on: RXF 393
SF-268 = tested on: SF-268
SF-295 = tested on: SF-295
SF-539 = tested on: SF-539
SK-MEL-28 = tested on: SK-MEL-28
SK-MEL-2 = tested on: SK-MEL-2
SK-MEL-5 = tested on: SK-MEL-5
SK-OV-3 = tested on: SK-OV-3
SN12C = tested on: SN12C
SNB-19 = tested on: SNB-19
SR = tested on: SR
SW-620 = tested on: SW-620
T47D = tested on: T47D
TK-10 = tested on: TK-10
U-251 = tested on: U-251
UACC-257 = tested on: UACC-257
UACC-62 = tested on: UACC-62
UO-31 = tested on: UO-31
SNB-75 = tested on: SNB-75

Q: Which GI50 (786-0) does the source give for `CSC1(SC)CCCCCCCCCCC1` here?
A: 37.1 µM (inactive)

Q: And the GI50 (A498)?
A: > 100 µM (inactive)

Q: What about the GI50 (A549) of the same molecule?
A: 31.6 µM (inactive)

Q: And the GI50 (ACHN)?
A: 34.2 µM (inactive)

Q: What about the GI50 (BT-549) of the same molecule?
A: 60.3 µM (inactive)

Q: And the GI50 (CAKI-1)?
A: 58.1 µM (inactive)

Q: And the GI50 (CCRF-CEM)?
A: 22.9 µM (inactive)

Q: And the GI50 (COLO 205)?
A: 19.2 µM (inactive)

Q: What about the GI50 (DU-145) of the same molecule?
A: 55.3 µM (inactive)

Q: And the GI50 (EKVX)?
A: 39 µM (inactive)

Q: What about the GI50 (HCC 2998) of the same molecule?
A: 20.4 µM (inactive)

Q: What about the GI50 (HCT-116) of the same molecule?
A: 17 µM (inactive)

Q: And the GI50 (HCT-15)?
A: 48.1 µM

Q: And the GI50 (HL-60)?
A: 46.3 µM (inactive)

Q: What about the GI50 (HOP-62) of the same molecule?
A: 49.7 µM (inactive)

Q: What about the GI50 (HOP-92) of the same molecule?
A: 36.8 µM (inactive)

Q: What about the GI50 (HT-29) of the same molecule?
A: 31.7 µM (inactive)

Q: What about the GI50 (Hs-578T) of the same molecule?
A: 43.1 µM (inactive)

Q: And the GI50 (IGROV-1)?
A: 41.8 µM (inactive)

Q: What about the GI50 (K562) of the same molecule?
A: 32 µM (inactive)

Q: And the GI50 (KM12)?
A: 41.7 µM (inactive)

Q: What about the GI50 (LOX IMVI) of the same molecule?
A: 18.7 µM (inactive)

Q: What about the GI50 (M14) of the same molecule?
A: 47.5 µM (inactive)

Q: And the GI50 (MCF7)?
A: 21.3 µM (inactive)

Q: And the GI50 (MDA-MB-231)?
A: 41.4 µM (inactive)

Q: What about the GI50 (MDA-MB-435) of the same molecule?
A: 38.9 µM (inactive)

Q: What about the GI50 (MDA-N) of the same molecule?
A: 42.8 µM (inactive)

Q: And the GI50 (MOLT-4)?
A: 33.7 µM (inactive)

Q: What about the GI50 (Malme-3M) of the same molecule?
A: 25.5 µM (inactive)

Q: And the GI50 (NCI-H226)?
A: > 100 µM (inactive)

Q: What about the GI50 (NCI-H23) of the same molecule?
A: 68.9 µM (inactive)

Q: What about the GI50 (NCI-H460) of the same molecule?
A: 29.8 µM (inactive)

Q: And the GI50 (NCI-H522)?
A: 16.3 µM (inactive)

Q: What about the GI50 (NCI/ADR-RES) of the same molecule?
A: 41.2 µM (inactive)

Q: What about the GI50 (OVCAR-3) of the same molecule?
A: 27.8 µM (inactive)

Q: And the GI50 (OVCAR-4)?
A: 49.4 µM (inactive)

Q: And the GI50 (OVCAR-5)?
A: 53.2 µM (inactive)

Q: What about the GI50 (OVCAR-8) of the same molecule?
A: 45.5 µM (inactive)

Q: And the GI50 (PC-3)?
A: 40.9 µM (inactive)

Q: What about the GI50 (RPMI-8226) of the same molecule?
A: 78.5 µM (inactive)

Q: What about the GI50 (RXF 393) of the same molecule?
A: 25 µM (inactive)

Q: And the GI50 (SF-268)?
A: 53.7 µM (inactive)

Q: What about the GI50 (SF-295) of the same molecule?
A: 37.3 µM (inactive)

Q: What about the GI50 (SF-539) of the same molecule?
A: > 100 µM (inactive)

Q: What about the GI50 (SK-MEL-28) of the same molecule?
A: 44.9 µM (inactive)

Q: What about the GI50 (SK-MEL-2) of the same molecule?
A: 24 µM (inactive)

Q: What about the GI50 (SK-MEL-5) of the same molecule?
A: 35.2 µM (inactive)

Q: What about the GI50 (SK-OV-3) of the same molecule?
A: 83.9 µM (inactive)

Q: What about the GI50 (SN12C) of the same molecule?
A: 70 µM (inactive)

Q: And the GI50 (SNB-19)?
A: 53.5 µM (inactive)

Q: What about the GI50 (SR) of the same molecule?
A: 43.7 µM (inactive)

Q: What about the GI50 (SW-620) of the same molecule?
A: 44.6 µM (inactive)

Q: And the GI50 (T47D)?
A: 25 µM (inactive)

Q: And the GI50 (TK-10)?
A: 90.2 µM (inactive)

Q: And the GI50 (U-251)?
A: 32.4 µM (inactive)

Q: And the GI50 (UACC-257)?
A: 27.5 µM (inactive)

Q: And the GI50 (UACC-62)?
A: 46 µM (inactive)

Q: And the GI50 (UO-31)?
A: 31.3 µM (inactive)

Q: With `CCc1nc(N)nc(N)c1-c1ccc2nnn(O)c2c1` as the molecule, how does the GI50 (786-0) read?
A: > 100 µM (inactive)

Q: And the GI50 (A498)?
A: > 100 µM (inactive)

Q: And the GI50 (A549)?
A: > 73.6 µM (inactive)

Q: And the GI50 (ACHN)?
A: > 100 µM (inactive)

Q: And the GI50 (BT-549)?
A: > 100 µM (inactive)

Q: What about the GI50 (CAKI-1) of the same molecule?
A: > 100 µM (inactive)

Q: And the GI50 (CCRF-CEM)?
A: > 100 µM (inactive)

Q: What about the GI50 (COLO 205) of the same molecule?
A: > 100 µM (inactive)

Q: And the GI50 (DU-145)?
A: > 100 µM (inactive)

Q: And the GI50 (EKVX)?
A: > 100 µM (inactive)

Q: And the GI50 (HCC 2998)?
A: > 100 µM (inactive)

Q: What about the GI50 (HCT-116) of the same molecule?
A: > 83.8 µM (inactive)

Q: What about the GI50 (HCT-15) of the same molecule?
A: > 100 µM

Q: What about the GI50 (HL-60) of the same molecule?
A: > 100 µM (inactive)

Q: And the GI50 (HOP-62)?
A: > 100 µM (inactive)

Q: What about the GI50 (HOP-92) of the same molecule?
A: > 100 µM (inactive)

Q: What about the GI50 (HT-29) of the same molecule?
A: > 89.1 µM (inactive)

Q: What about the GI50 (Hs-578T) of the same molecule?
A: > 100 µM (inactive)

Q: What about the GI50 (IGROV-1) of the same molecule?
A: > 100 µM (inactive)

Q: What about the GI50 (K562) of the same molecule?
A: 76.2 µM (inactive)

Q: What about the GI50 (KM12) of the same molecule?
A: > 100 µM (inactive)

Q: And the GI50 (LOX IMVI)?
A: > 100 µM (inactive)

Q: What about the GI50 (M14) of the same molecule?
A: > 100 µM (inactive)

Q: And the GI50 (MCF7)?
A: > 100 µM (inactive)

Q: What about the GI50 (MDA-MB-231) of the same molecule?
A: > 100 µM (inactive)

Q: What about the GI50 (MDA-MB-435) of the same molecule?
A: > 100 µM (inactive)

Q: And the GI50 (MDA-N)?
A: > 100 µM (inactive)

Q: And the GI50 (MOLT-4)?
A: > 100 µM (inactive)

Q: What about the GI50 (NCI-H226) of the same molecule?
A: > 100 µM (inactive)

Q: What about the GI50 (NCI-H23) of the same molecule?
A: > 100 µM (inactive)

Q: What about the GI50 (NCI-H460) of the same molecule?
A: > 72.8 µM (inactive)

Q: And the GI50 (NCI-H522)?
A: > 100 µM (inactive)

Q: And the GI50 (NCI/ADR-RES)?
A: > 100 µM (inactive)

Q: What about the GI50 (OVCAR-3) of the same molecule?
A: > 100 µM (inactive)

Q: What about the GI50 (OVCAR-4) of the same molecule?
A: > 100 µM (inactive)

Q: And the GI50 (OVCAR-5)?
A: > 100 µM (inactive)

Q: And the GI50 (OVCAR-8)?
A: > 100 µM (inactive)

Q: And the GI50 (PC-3)?
A: > 100 µM (inactive)

Q: And the GI50 (RPMI-8226)?
A: > 100 µM (inactive)

Q: What about the GI50 (RXF 393) of the same molecule?
A: > 100 µM (inactive)

Q: And the GI50 (SF-268)?
A: > 100 µM (inactive)

Q: What about the GI50 (SF-295) of the same molecule?
A: > 100 µM (inactive)

Q: And the GI50 (SF-539)?
A: > 100 µM (inactive)

Q: And the GI50 (SK-MEL-28)?
A: > 100 µM (inactive)

Q: What about the GI50 (SK-MEL-2) of the same molecule?
A: > 100 µM (inactive)

Q: And the GI50 (SK-MEL-5)?
A: > 100 µM (inactive)

Q: And the GI50 (SK-OV-3)?
A: > 100 µM (inactive)

Q: What about the GI50 (SN12C) of the same molecule?
A: > 100 µM (inactive)

Q: What about the GI50 (SNB-19) of the same molecule?
A: > 100 µM (inactive)

Q: What about the GI50 (SNB-75) of the same molecule?
A: > 100 µM (inactive)

Q: What about the GI50 (SR) of the same molecule?
A: > 100 µM (inactive)

Q: And the GI50 (SW-620)?
A: > 100 µM (inactive)

Q: What about the GI50 (T47D) of the same molecule?
A: > 100 µM (inactive)

Q: What about the GI50 (TK-10) of the same molecule?
A: > 100 µM (inactive)

Q: What about the GI50 (U-251) of the same molecule?
A: > 100 µM (inactive)

Q: What about the GI50 (UACC-257) of the same molecule?
A: > 100 µM (inactive)

Q: And the GI50 (UACC-62)?
A: > 100 µM (inactive)

Q: And the GI50 (UO-31)?
A: > 100 µM (inactive)

Source: ChEMBL document CHEMBL1201862, “PubChem BioAssay data set” (2004)
